Assay results published in ChEMBL document CHEMBL5625249, “Optimization and antifungal activity of quinoline derivatives linked to chalcone moiety combined with FLC against Candida albicans” (Eur J Med Chem, 2023).
In brackets after ≈: the same amount, converted by molar mass. Activity calls are given as the source filed them. The rule behind the calls is not given here.

Experiments:
Candida albicans [1] = assay: In vivo antifungal activity against FLC-resistant Candida albicans ATCC 14053 infected in Balb/c mouse assessed as restoration of normal lung morphology at 2 mg/kg, ig measured after 6 days by H and E staining based histopathological analysis; type: functional, organism-based; conditions: time 6.0 day
Candida albicans [2] = assay: In vivo antifungal activity against FLC-resistant Candida albicans ATCC 14053 infected in Balb/c mouse assessed as reduction in severity of lesions in lungs at 2 mg/kg, ig measured after 6 days by H and E staining based histopathological analysis; type: functional, organism-based; conditions: time 6.0 day
Candida albicans [3] = assay: Antifungal activity against FLC-resistant Candida albicans ATCC 14053 at 1 ug/mL measured over 48 hrs by time-killing assay; type: functional, organism-based; conditions: dose 1.0 µg/ml
Candida albicans [4] = assay: In vivo antifungal activity against FLC-resistant Candida albicans ATCC 14053 infected in Balb/c mouse assessed as reduction in renal injury at 2 mg/kg, ig measured after 6 days by H and E staining based histopathological analysis; type: functional, organism-based; conditions: time 6.0 day
Candida albicans [5] = assay: Antifungal activity against FLC-resistant Candida albicans ATCC 14053 assessed as inhibition of hyphal formation by measuring down regulation of RAS1 gene expression at 8 ug/ml measured after 16 to 18 hrs by qRT-PCR analysis; type: functional, organism-based; conditions: dose 8.0 µg/ml, time 16-18 hrs
Candida albicans [6] = assay: Antifungal activity against clinical FLC-resistant Candida albicans 808 measured after 24 hrs by microdilution method; type: functional
Candida albicans [7] = assay: Antifungal activity against clinical FLC-resistant Candida albicans 602 measured after 24 hrs by microdilution method; type: functional
Candida albicans [8] = assay: In vivo antifungal activity against FLC-resistant Candida albicans ATCC 14053 infected in Balb/c mouse assessed as reduction in lung fungal load at 2 mg/kg, ig measured after 6 days; type: functional, organism-based; conditions: time 6.0 day
Candida albicans [9] = assay: In vivo antifungal activity against FLC-resistant Candida albicans ATCC 14053 infected in Balb/c mouse assessed as increase in organ coefficients of spleen at 2 mg/kg, ig measured after 6 days; type: functional, organism-based; conditions: time 6.0 day
Candida albicans [10] = assay: Antifungal activity against clinical FLC-resistant Candida albicans 4574 measured after 24 hrs by microdilution method; type: functional
Candida albicans [11] = assay: Induction of reactive oxygen species production in FLC-resistant Candida albicans ATCC 14053 at 1 ug/mL measured after 16 to 18 hrs by DCFH-DA staining based fluorescence assay; type: functional, organism-based; conditions: dose 1.0 µg/ml, time 16-18 hrs
Candida albicans [12] = assay: In vivo antifungal activity against FLC-resistant Candida albicans ATCC 14053 infected in Balb/c mouse assessed as restoration of normal glomeruli morphology at 2 mg/kg, ig measured after 6 days by H and E staining based histopathological analysis; type: functional, organism-based; conditions: time 6.0 day
Candida albicans [13] = assay: Antifungal activity against clinical FLC-resistant Candida albicans 3816 measured after 24 hrs by microdilution method; type: functional
[14] = Toxicity in Balb/c mouse infected with FLC-resistant Candida albicans ATCC 14053 assessed as weight loss at 2 mg/kg, ig measured daily for 6 days; type: organism-based; conditions: in vivo, po, 144 h, time 6 day
Candida albicans [15] = assay: Antifungal activity against FLC-resistant Candida albicans ATCC 14053 assessed as reduction in intracellular ATP level at 1 ug/ml measured after 16 to 18 hrs by luminescence assay; type: functional, organism-based; conditions: dose 1.0 µg/ml, time 16-18 hrs
Candida albicans [16] = assay: In vivo antifungal activity against FLC-resistant Candida albicans ATCC 14053 infected in Balb/c mouse assessed as removal of colonized fungi at 2 mg/kg, ig measured after 6 days by H and E staining based histopathological analysis; type: functional, organism-based; conditions: time 6.0 day
Candida albicans [17] = assay: Antifungal activity against clinical FLC-resistant Candida albicans 800 measured after 24 hrs by microdilution method; type: functional
Candida albicans [18] = assay: Antifungal activity against FLC-resistant Candida albicans ATCC 14053 assessed as inhibition of hyphal formation by measuring down regulation of ECE1 gene expression at 8 ug/ml measured after 16 to 18 hrs by qRT-PCR analysis; type: functional, organism-based; conditions: dose 8.0 µg/ml, time 16-18 hrs
Candida albicans [19] = assay: Antifungal activity against clinical FLC-resistant Candida albicans 4508 measured after 24 hrs by microdilution method; type: functional
Candida albicans [20] = assay: In vivo antifungal activity against FLC-resistant Candida albicans ATCC 14053 infected in Balb/c mouse assessed as reduction in infiltration of inflammatory cells at 2 mg/kg, ig measured after 6 days by H and E staining based histopathological analysis; type: functional, organism-based; conditions: time 6.0 day
[21] = Toxicity in Balb/c mouse assessed as death at 2 mg/kg, ig measured daily for 6 days; type: organism-based; conditions: in vivo, po, 144 h, time 6 day
Candida albicans [22] = assay: Antifungal activity against FLC-resistant Candida albicans ATCC 10231 measured after 24 hrs by microdilution method; type: functional
Candida albicans [23] = assay: Antifungal activity against FLC-resistant Candida albicans ATCC 14053 cultured in spider medium assessed as inhibition of hyphal formation at 1 ug/ml measured after 2 hrs by inverted microscopy; type: functional, organism-based; conditions: dose 1.0 µg/ml
Candida albicans [24] = assay: Antifungal activity against FLC-resistant Candida albicans ATCC 14053 assessed as inhibition of hyphal formation by measuring down regulation of EFG1 gene expression at 8 ug/ml measured after 16 to 18 hrs by qRT-PCR analysis; type: functional, organism-based; conditions: dose 8.0 µg/ml, time 16-18 hrs
Candida albicans [25] = assay: Antifungal activity against FLC-resistant Candida albicans ATCC 14053 measured after 24 hrs by microdilution method; type: functional
Candida albicans [26] = assay: Antifungal activity against FLC-resistant Candida albicans ATCC 14053 assessed as inhibition of hyphal formation by measuring down regulation of CYR1 gene expression at 8 ug/ml measured after 16 to 18 hrs by qRT-PCR analysis; type: functional, organism-based; conditions: dose 8.0 µg/ml, time 16-18 hrs
Candida albicans [27] = assay: In vivo antifungal activity against FLC-resistant Candida albicans ATCC 14053 infected in Balb/c mouse assessed as reduction in severity of lesions in kidney at 2 mg/kg, ig measured after 6 days by H and E staining based histopathological analysis; type: functional, organism-based; conditions: time 6.0 day
Candida albicans [28] = assay: Induction of mitochondrial membrane potential loss in FLC-resistant Candida albicans ATCC 14053 at 1 ug/mL measured after 16 to 18 hrs by JC-1 staining based fluorescence assay; type: functional, organism-based; conditions: dose 1.0 µg/ml, time 16-18 hrs
Candida albicans [29] = assay: Antifungal activity against clinical FLC-resistant Candida albicans 187 measured after 24 hrs by microdilution method; type: functional
Candida albicans [30] = assay: Antifungal activity against clinical FLC-resistant Candida albicans 3511 measured after 24 hrs by microdilution method; type: functional
Candida albicans [31] = assay: Antifungal activity against FLC-resistant Candida albicans ATCC 14053 cultured in SD +10% FBS liquid medium assessed as inhibition of hyphal formation at 1 ug/ml measured after 2 hrs by inverted microscopy; type: functional, organism-based; conditions: dose 1.0 µg/ml
Candida albicans [32] = assay: In vivo antifungal activity against FLC-resistant Candida albicans ATCC 14053 infected in Balb/c mouse assessed as increase in organ coefficients of thymus at 2 mg/kg, ig measured after 6 days; type: functional, organism-based; conditions: time 6.0 day
Candida albicans [33] = assay: Antifungal activity against Clinical FLC-resistant Candida albicans 23 measured after 24 hrs by microdilution method; type: functional
Candida albicans [34] = assay: Antifungal activity against clinical FLC-resistant Candida albicans 550 measured after 24 hrs by microdilution method; type: functional
Candida albicans [35] = assay: Antifungal activity against FLC-resistant Candida albicans ATCC 14053 assessed as inhibition of hyphal formation by measuring down regulation of ALS3 gene expression at 8 ug/ml measured after 16 to 18 hrs by qRT-PCR analysis; type: functional, organism-based; conditions: dose 8.0 µg/ml, time 16-18 hrs
Candida albicans [36] = assay: Antifungal activity against clinical FLC-resistant Candida albicans 799 measured after 24 hrs by microdilution method; type: functional
Candida albicans [37] = assay: Antifungal activity against FLC-resistant Candida albicans ATCC 14053 assessed as inhibition of hyphal formation by measuring down regulation of HWP1 gene expression at 8 ug/ml measured after 16 to 18 hrs by qRT-PCR analysis; type: functional, organism-based; conditions: dose 8.0 µg/ml, time 16-18 hrs
Candida albicans [38] = assay: Antifungal activity against clinical FLC-resistant Candida albicans 381 measured after 24 hrs by microdilution method; type: functional
Candida albicans [39] = assay: In vivo antifungal activity against FLC-resistant Candida albicans ATCC 14053 infected in Balb/c mouse assessed as reduction in kidney fungal load at 2 mg/kg, ig measured after 6 days; type: functional, organism-based; conditions: time 6.0 day
[40] = Toxicity in Balb/c mouse assessed as weight loss at 2 mg/kg, ig measured daily for 6 days; type: organism-based; conditions: in vivo, po, 144 h, time 6 day
Candida albicans [41] = assay: Antifungal activity against FLC-sensitive Candida albicans SC5314 measured after 24 hrs by microdilution method; type: functional
Candida albicans [42] = assay: In vivo antifungal activity against FLC-resistant Candida albicans ATCC 14053 infected in Balb/c mouse assessed as survival rate at 2 mg/kg, ig measured daily for 6 days (Rvb < 20%); type: functional; conditions: ATCC 14053, po, 144 h, time 6 day
Candida albicans [43] = assay: In vivo antifungal activity against FLC-resistant Candida albicans ATCC 14053 infected in Balb/c mouse assessed as restoration of normal kidney morphology at 2 mg/kg, ig measured after 6 days by H and E staining based histopathological analysis; type: functional, organism-based; conditions: time 6.0 day

Q: Which results are given for `OC(Cn1cncn1)(Cn1cncn1)c1ccc(F)cc1F` [FLUCONAZOLE]?
A: Activity (Candida albicans [1]): inactive; Activity (Candida albicans [2]): inactive; Activity (Candida albicans [3]): Active; Activity (Candida albicans [4]): inactive; inhibition (Candida albicans [5]): Active; MIC80 (Candida albicans [6]): > 40 µg/mL; MIC80 (Candida albicans [7]): > 40 µg/mL; Activity (Candida albicans [8]): inactive; Activity (Candida albicans [9]): Active; MIC80 (Candida albicans [10]): > 40 µg/mL; Activity (Candida albicans [11]): Active; Activity (Candida albicans [12]): inactive; MIC80 (Candida albicans [13]): > 40 µg/mL; Activity [14]: Toxic; Activity (Candida albicans [15]): Active; Activity (Candida albicans [16]): inactive; MIC80 (Candida albicans [17]): > 40 µg/mL; inhibition (Candida albicans [18]): Active; MIC80 (Candida albicans [19]): > 40 µg/mL; Activity (Candida albicans [20]): inactive; Activity [21]: Non-Toxic; MIC80 (Candida albicans [22]): > 40 µg/mL; inhibition (Candida albicans [23]): inactive; inhibition (Candida albicans [24]): Active; MIC80 (Candida albicans [25]): > 40 µg/mL; inhibition (Candida albicans [26]): Active; Activity (Candida albicans [27]): inactive; Activity (Candida albicans [28]): Active; MIC80 (Candida albicans [29]): > 40 µg/mL; MIC80 (Candida albicans [30]): > 40 µg/mL; inhibition (Candida albicans [31]): inactive; Activity (Candida albicans [32]): Active; MIC80 (Candida albicans [33]): > 40 µg/mL; MIC80 (Candida albicans [34]): > 40 µg/mL; inhibition (Candida albicans [35]): Active; MIC80 (Candida albicans [36]): > 40 µg/mL; inhibition (Candida albicans [37]): Active; MIC80 (Candida albicans [38]): > 40 µg/mL; Activity (Candida albicans [39]): Active; Activity [40]: Non-Toxic; MIC80 (Candida albicans [41]): 5.79 µg/mL (≈ 18.9 µM); survival at 2 mg/kg (Candida albicans [42]): 30%; Activity (Candida albicans [43]): inactive
